39 molecules from US20080194574A1, “Pyrazine Derivatives As Effective Compounds Against Infectious Diseases” (AXXIMA PHARMACEUTICALS AG, priority 2003, published 2008) can be followed below.

T1 sequence (P16788 whole entry): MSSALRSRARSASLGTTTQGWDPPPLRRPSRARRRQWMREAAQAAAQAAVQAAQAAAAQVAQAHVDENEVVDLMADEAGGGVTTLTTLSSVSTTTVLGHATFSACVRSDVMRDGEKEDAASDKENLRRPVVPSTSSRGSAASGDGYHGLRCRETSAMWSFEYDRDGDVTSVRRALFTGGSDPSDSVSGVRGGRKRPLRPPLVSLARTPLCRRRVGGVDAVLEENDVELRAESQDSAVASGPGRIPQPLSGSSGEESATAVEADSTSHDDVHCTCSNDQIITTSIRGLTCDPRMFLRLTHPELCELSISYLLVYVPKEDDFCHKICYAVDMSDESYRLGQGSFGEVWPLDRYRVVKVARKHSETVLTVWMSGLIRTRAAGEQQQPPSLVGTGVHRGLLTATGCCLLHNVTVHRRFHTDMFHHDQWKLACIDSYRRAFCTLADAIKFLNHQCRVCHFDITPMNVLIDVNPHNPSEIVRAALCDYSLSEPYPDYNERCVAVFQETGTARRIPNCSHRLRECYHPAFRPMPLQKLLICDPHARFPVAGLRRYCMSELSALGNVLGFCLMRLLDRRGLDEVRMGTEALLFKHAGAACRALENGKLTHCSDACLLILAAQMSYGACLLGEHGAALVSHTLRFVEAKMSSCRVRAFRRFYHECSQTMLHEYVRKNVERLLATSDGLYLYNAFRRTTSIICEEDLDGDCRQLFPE

One test addresses T1, viral kinase pUL-97 (Human cytomegalovirus, UniProt P16788).
T1 construct: The pUL-97 gene was cloned into a baculovirus vector; GST (glutathione S-transferase) (N); made in house; host or cells: Sf9 insect cells, baculovirus
Put plainly: UL97 kinase assay on Immobilon plate. Type of test: biochemical. The note with it: inhibition of UL 97 kinase activity; class by IC50 / % inhibition at 10 μM or 100 μM; read-out: Activity Class [A, B, C]. The method, boiled down: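 GST-pUL97 from baculovirus-infected Sf9 cells phosphorylated myelin basic protein with ATP (3 μM in the added assay buffer) and γ-[33P]ATP in Tris-HCl pH 7.5 buffer with MnCl2 and DTT. Reaction ran 1 h at 30 °C with graded compound concentrations and was stopped with EDTA. 33P incorporation was measured by scintillation after filter capture and phosphoric acid washes.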
Turning to `CCOc1ccc(-c2cncc(N3CCN(c4ccc(F)cc4F)CC3)n2)cc1` [compound 203, 4-(2,4-Difluoro-phenyl)-6′-(4-ethoxy-phenyl)-3,4,5,6-tetrahydro-2H-[1,2′]bipyrazinyl], the IC50 was 10 to 100 µM. Same read-out and setting: with `CSc1ccc(-c2cncc(N3CCN(c4ccc(F)cc4F)CC3)n2)cc1` [compound 274, 4-(2,4-Difluoro-phenyl)-6′-(4-methylsulfanyl-phenyl)-3,4,5,6-tetrahydro-2H-[1,2′]bipyrazinyl] the figure was 1 to 10 µM; with `COc1cccc(N2CCN(c3cncc(-c4cccc(C(C)=O)c4)n3)CC2)c1` [compound 368, 1-{3-[4-(3-Methoxy-phenyl)-3,4,5,6-tetrahydro-2H-[1,2′]bipyrazinyl-6′-yl]-phenyl}-ethanone], 1 to 10 µM; with `COc1ccccc1N1CCN(c2cncc(-c3ccccc3C(C)=O)n2)CC1` [compound 240, 1-{2-[4-(2-Methoxy-phenyl)-3,4,5,6-tetrahydro-2H-[1,2′]bipyrazinyl-6′-yl]-phenyl}-ethanone], 10 to 100 µM.

In the case of `CC(=O)c1ccc(-c2cncc(N3CCN(c4ccccn4)CC3)n2)cc1` [compound 308, 1-[4-(4-Pyridin-2-yl-3,4,5,6-tetrahydro-2H-[1,2′]bipyrazinyl-6′-yl)-phenyl]-ethanone], the IC50 was in the range of 1 to 10 µM. Same read-out and setting: to `CC(=O)c1ccc(-c2cncc(N3CCC(c4ccccc4)CC3)n2)cc1` [compound 362] belongs 1 to 10 µM. On to `c1ccc(C2CCN(c3cncc(-c4ccsc4)n3)CC2)cc1` [compound 336, 2-(4-Phenyl-piperidin-1-yl)-6-thiophen-3-yl-pyrazine], for which the IC50 was 1 to 10 µM.

Turning to `COc1ccc(N2CCN(c3cncc(-c4cccc(C)c4)n3)CC2)cc1OC` [compound 223, 4-(3,4-Dimethoxy-phenyl)-6′-m-tolyl-3,4,5,6-tetrahydro-2H-[1,2′]bipyrazinyl], the IC50 is 1 to 10 µM. In the case of `COc1ccc(-c2cncc(N3CCN(c4ccc(Cl)c(Cl)c4)CC3)n2)cc1OC` [compound 371, 4-(3,4-Dichloro-phenyl)-6′-(3,4-dimethoxy-phenyl)-3,4,5,6-tetrahydro-2H-[1,2′]bipyrazinyl], the IC50 fell in the range of 10 to 100 µM. The same measure, in the same setting: to `COc1ccc(-c2cncc(N3CCN(c4ccc(C(F)(F)F)cc4)CC3)n2)cc1OC` [compound 310, 6′-(3,4-Dimethoxy-phenyl)-4-(4-trifluoromethyl-phenyl)-3,4,5,6-tetrahydro-2H-[1,2′]bipyrazinyl] belongs 10 to 100 µM; to `Cc1ccc(N2CCN(c3cncc(-c4ccc(C(F)(F)F)cc4)n3)CC2)c(C)c1` [compound 354, 4-(2,4-Dimethyl-phenyl)-6′-(4-trifluoromethyl-phenyl)-3,4,5,6-tetrahydro-2H-[1,2′]bipyrazinyl], 10 to 100 µM. Consider `COc1ccc(N2CCN(c3cncc(-c4ccc(C(F)(F)F)cc4)n3)CC2)cc1` [compound 355, 4-(4-Methoxy-phenyl)-6′-(4-trifluoromethyl-phenyl)-3,4,5,6-tetrahydro-2H-[1,2′]bipyrazinyl], for which the IC50 was 1 to 10 µM. Take `Cc1cccc(N2CCN(c3cncc(-c4cc5ccccc5s4)n3)CC2C)c1` (stereo not drawn) [compound 300, 6′-Benzo[b]thiophen-2-yl-3-methyl-4-m-tolyl-3,4,5,6-tetrahydro-2H-[1,2′]bipyrazinyl]: the IC50 was in the range of 10 to 100 µM.

As for `CC(=O)c1ccc(N2CCN(c3cncc(-c4ccoc4)n3)CC2)cc1` [compound 205, 1-[4-(6′-Furan-3-yl-2,3,5,6-tetrahydro-[1,2′]bipyrazinyl-4-yl)-phenyl]-ethanone], the IC50 lay in the range of 1 to 10 µM. The same measure, in the same setting: with `COc1ccc(N2CCN(c3cncc(-c4ccc(F)cc4)n3)CC2)cc1` [compound 363, 6′-(4-Fluoro-phenyl)-4-(4-methoxy-phenyl)-3,4,5,6-tetrahydro-2H-[1,2′]bipyrazinyl] the figure was 1 to 10 µM; with `Fc1ccc(N2CCN(c3cncc(-c4ccc5ccccc5c4)n3)CC2)c(F)c1` [compound 199, 4-(2,4-Difluoro-phenyl)-6′-naphthalen-2-yl-3,4,5,6-tetrahydro-2H-[1,2′]bipyrazinyl], 1 to 10 µM.

In the case of `c1ccc(C2CCN(c3cncc(-c4cccc5ccccc45)n3)CC2)cc1` [compound 318, 2-Naphthalen-1-yl-6-(4-phenyl-piperidin-1-yl)-pyrazine], the IC50 fell in the range of 10 to 100 µM. On the same count and under the same terms, with `COc1cccc(N2CCN(c3cncc(-c4ccc(C(N)=O)cc4)n3)CC2)c1` [compound 364, 4-[4-(3-Methoxy-phenyl)-3,4,5,6-tetrahydro-2H-[1,2′]bipyrazinyl-6′-yl]-benzamide] the figure was 1 to 10 µM; with `Brc1ccc(-c2cncc(N3CCN(c4cnccn4)CC3)n2)cc1` [compound 313, 6-(4-Bromo-phenyl)-2′,3′,5′,6′-tetrahydro-[2,1′;4′,2″]terpyrazine], less than 1 µM. The same measure, in the same setting: to `OCc1ccc(-c2cncc(N3CCN(c4ccc(F)cc4)CC3)n2)cc1` [compound 269, {4-[4-(4-Fluoro-phenyl)-3,4,5,6-tetrahydro-2H-[1,2′]bipyrazinyl-6′-yl]-phenyl}-methanol] belongs 1 to 10 µM; to `Cc1ccc(-c2cncc(N3CCN(c4ccccn4)CC3)n2)cc1` [compound 328, 4-Pyridin-2-yl-6′-p-tolyl-3,4,5,6-tetrahydro-2H-[1,2′]bipyrazinyl], 1 to 10 µM.

Staying with this test, now noted: inhibition of UL 97 kinase activity; class by IC50 / % inhibition at 10 or 100 μM; read-out: Activity Class [A, B, C].
For the molecule `N#Cc1ccc(-c2cncc(N3CCN(c4ccncc4)CC3)n2)cc1` [compound 131, 4-(4-Pyridin-4-yl-3,4,5,6-tetrahydro-2H-[1,2′]bipyrazinyl-6′-yl)-benzonitrile], the IC50 lay in the range of 1 to 10 µM.

For the molecule `Fc1ccc(-c2cncc(N3CCN(c4ccncc4)CC3)n2)cc1Cl` [compound 33, 6′-(3-Chloro-4-fluoro-phenyl)-4-pyridin-4-yl-3,4,5,6-tetrahydro-2H-[1,2′]bipyrazinyl], the IC50 is less than 1 µM.

Regarding `COc1ccc(N2CCN(c3cncc(-c4cccc(OC)c4OC)n3)CC2)cc1OC` [compound 171, 4-(3,4-Dimethoxy-phenyl)-6′-(2,3-dimethoxy-phenyl)-3,4,5,6-tetrahydro-2H-[1,2′]bipyrazinyl], the IC50 fell in the range of 10 to 100 µM. Take `CC(=O)c1cccc(-c2cncc(N3CCN(c4cccc(Cl)c4)CC3)n2)c1` [compound 101, 1-{3-[4-(3-Chloro-phenyl)-3,4,5,6-tetrahydro-2H-[1,2′]bipyrazinyl-6′-yl]-phenyl}-ethanone]: the IC50 is 1 to 10 µM.

For `c1cc(N2CCN(c3cncc(-c4ccsc4)n3)CC2)ccn1` [compound 79, 4-Pyridin-4-yl-6′-thiophen-3-yl-3,4,5,6-tetrahydro-2H-[1,2′]bipyrazinyl], the IC50 lay in the range of 1 to 10 µM. `c1ccc(Oc2ccc(-c3cncc(N4CCN(c5ccccc5)CC4)n3)cc2)cc1` [compound 189, 6′-(4-Phenoxy-phenyl)-4-phenyl-3,4,5,6-tetrahydro-2H-[1,2′]bipyrazinyl]: the IC50 was in the range of 10 to 100 µM. On the same count and under the same terms, to `Cc1ccc(-c2cncc(N3CCN(c4cccc(C(F)(F)F)c4)CC3)n2)cc1` [compound 155, 6′-p-Tolyl-4-(3-trifluoromethyl-phenyl)-3,4,5,6-tetrahydro-2H-[1,2′]bipyrazinyl] belongs 10 to 100 µM; to `Clc1ccc(-c2cncc(N3CCN(c4ccncc4)CC3)n2)cc1` [compound 47, 6′-(4-Chloro-phenyl)-4-pyridin-4-yl-3,4,5,6-tetrahydro-2H-[1,2′]bipyrazinyl], 1 to 10 µM. As for `CSc1ccc(-c2cncc(N3CCN(c4ccc(F)cc4)CC3)n2)cc1` [compound 140, 4-(4-Fluoro-phenyl)-6′-(4-methylsulfanyl-phenyl)-3,4,5,6-tetrahydro-2H-[1,2′]bipyrazinyl], the IC50 fell in the range of 1 to 10 µM. Still for that read-out and setting: to `Cc1ccccc1-c1cncc(N2CCN(c3cccc(Cl)c3)CC2)n1` [compound 82, 4-(3-Chloro-phenyl)-6′-o-tolyl-3,4,5,6-tetrahydro-2H-[1,2′]bipyrazinyl] belongs 10 to 100 µM; to `Fc1ccc(N2CCN(c3cncc(-c4ccc(C(F)(F)F)cc4)n3)CC2)cc1` [compound 180, 4-(4-Fluoro-phenyl)-6′-(4-trifluoromethyl-phenyl)-3,4,5,6-tetrahydro-2H-[1,2′]bipyrazinyl], 1 to 10 µM. As for `CSc1ccc(-c2cncc(N3CCN(c4ccc(C(C)=O)cc4)CC3)n2)cc1` [compound 159], the IC50 is less than 1 µM. Still for that read-out and setting: to `Oc1ccc(-c2cncc(N3CCN(c4ccncc4)CC3)n2)cc1` [compound 57, 4-(4-Pyridin-4-yl-3,4,5,6-tetrahydro-2H-[1,2′]bipyrazinyl-6′-yl)-phenol] belongs 10 to 100 µM. In the case of `Cc1ccccc1-c1cncc(N2CCN(c3ccccc3F)CC2)n1` [compound 124, 4-(2-Fluoro-phenyl)-6′-o-tolyl-3,4,5,6-tetrahydro-2H-[1,2′]bipyrazinyl], the IC50 was in the range of 10 to 100 µM. Still for that read-out and setting: to `OCc1ccc(-c2cncc(N3CCN(c4cccc5[nH]ccc45)CC3)n2)cc1` [compound 61, {4-[4-(1H-Indol-4-yl)-3,4,5,6-tetrahydro-2H-[1,2′]bipyrazinyl-6′-yl]-phenyl}-methanol] belongs 10 to 100 µM; to `Fc1ccc(-c2cncc(N3CCN(c4ccncc4)CC3)n2)c(F)c1` [compound 46, 6′-(2,4-Difluoro-phenyl)-4-pyridin-4-yl-3,4,5,6-tetrahydro-2H-[1,2′]bipyrazinyl], 1 to 10 µM. The same measure, in the same setting: to `CCOc1ccc(-c2cncc(N3CCN(c4cccc(Cl)c4)CC3)n2)cc1` [compound 129, 4-(3-Chloro-phenyl)-6′-(4-ethoxy-phenyl)-3,4,5,6-tetrahydro-2H-[1,2′]bipyrazinyl] belongs 1 to 10 µM; to `OCc1ccc(-c2cncc(N3CCN(c4cccc(Cl)c4)CC3)n2)cc1` [compound 83, {4-[4-(3-Chloro-phenyl)-3,4,5,6-tetrahydro-2H-[1,2′]bipyrazinyl-6′-yl]-phenyl}-methanol], 1 to 10 µM.
